According to patent publication US20050279350A1, “Methods and apparatus for relieving headaches, rhinitis and other common ailments” (priority 1999, published 2005):
Like-named read-outs stand apart in the source and are kept apart here. Marks after values point to notes of the source that are not given here.

Columns and labels:
[1] = test system: human subjects; experiment: Effective and maximum tolerable nasal and oral carbon dioxide flow rates measured with laboratory apparatus; type: in vivo
Text: (§1) The test device was a hand-held, multi-dose, disposable, dispenser that was approximately 3 to 4 inches long and 6/8 to ⅞ inches in diameter constructed as described above. The device consisted of a plastic twist-top flow regulator mounted on top of a pressurized steel cartridge containing liquid carbon dioxide. The tip of the flow regulator has a nosepiece that is the optimal size and configuration to place against and seal off a nostril for administration of the gas. In a number of subjects, the effective nasal and oral carbon dioxide flow rates, and maximum tolerable nasal and oral flow rates, were measured using a laboratory apparatus. This apparatus consisted of a flow regulator connected via tubing to a flow meter and a large tank of carbon dioxide. These flow data were used, together with the number of seconds gas was administered during therapy, to calculate the estimated dose of gas in milliliters.
Initially, the effective nasal and oral, and maximum tolerable nasal and oral carbon dioxide flow rates were measured in seven subjects using a laboratory apparatus. The flow rate selected that is effective or the maximum tolerable rate varies with the individual. At low flow rates, the presence of the carbon dioxide produces a “tingling” sensation similar to that produced during drinking of carbonated beverages that inadvertently enter the nasal passages e.g., “bubbles up the nose”. This is the effective rate and the tingling is a welcome sensation because it usually coincides with immediate relief of symptoms. Above a certain subjectively determined flow rate the sensation becomes unpleasant, which may be described as a “stinging” or “burning” sensation. At a still higher flow rate (maximum tolerable rate), the stinging sensation becomes intolerable and subjects remove the device from their nostril. Also, subjects are more sensitive to the first does of a series for one attack; subsequent doses give less or no sensation. […] The typical effective rate nasally was 1 to 5 ml/sec and 5 to 10 ml/sec orally.

[2] = test system: human subjects with allergies (allergic rhinitis); type: in vivo; details: for 24-hr. Recur Rate / After Effects / Symptom Free, Minutes Post-Treatment / Symptom, Relief, Minutes Post-Treatment: moderate, severe; for Est. Rate / Est. Total Dose / Number of Doses / Single Dose Duration / Total Dose / Total Treatment Time: self-selected effective dose
Text: as §1
Of the total of 15 subjects included in the analysis, 11 used the treatment for 35 headaches and 9 subjects used it for 9 allergy attacks. […] subjects treated both headache and allergy but on different days. The subjects included adults, elderly, and children of both sexes in good general health, having mild, moderate, and severe headaches or having allergies to plant, animal, or airborne allergens. The device was used to treat migraine and tension-type headaches, jaw pain, and allergies (allergic rhinitis, with symptoms that included sinus congestion, sneezing, and itchy throat and eyes). There was no limitation on the duration of symptoms before treatment with the device. Subjects with no prior use of the device and those who have used it (to treat allergy symptoms) previously were included.
Carbon dioxide (100%) was administered nasally by the subject for a few seconds via a nostril to fill the nasal passages while holding their breath, or taking breaths of room air occasionally if the dose was lengthy. The gas exited the other nostril. Such nasal administration is similar to presently marketed nasal inhalers except that the administered gas was not inhaled. […] Subjects took as many doses as they needed for relief. It is important to note that there were no number of doses, duration of dose, time between doses, or gas flow rate specified for the user. Subjects chose their own regimen for symptom relief. Similarly, in medical practice today, gas therapy is a “titrate to effect” therapy without a specified dosage.
For allergy, the rating of the intensity level depends on the extent to which the allergy interferes with the ability to function. […] The same outcome measures as for headache were used for allergy.

[3] = subject five, experience w/device 0
[4] = subject four, experience w/device 0
[5] = subject one, experience w/device >1000
[6] = subject six, experience w/device 0
[7] = subject three, experience w/device >1000
[8] = subject two, experience w/device 0
[9] = subject, experience w/device >10
[10] = Allergy (N = 8), more stringent outcome measure definitions
[11] = Allergy (N = 8), more stringent outcome measure definitions, 1 min post-treatment
[12] = Allergy (N = 8), more stringent outcome measure definitions, 5 min post-treatment
[13] = Allergy (N = 8), more stringent outcome measure definitions, 15 min post-treatment
[14] = Allergy (N = 8), more stringent outcome measure definitions, 30 min post-treatment
[15] = Allergy (N = 9), mild, 1 min post-treatment
[16] = Allergy (N = 9), mild, 5 min post-treatment
[17] = Allergy (N = 9), mild, 15 min post-treatment
[18] = Allergy (N = 9), mild, 30 min post-treatment

With O=C=O [carbon dioxide] the “tolerance of high flow rates, oral versus nasal” value ([1]; seven subjects) was “better tolerated orally than nasally”, the “Effective Nasal Rate” value [1, 3] was 1 to 2 mL/s and the “Effective Oral Rate” value [1, 3] was 5 to 10 mL/s. For the same molecule, the “Max Tolerable Nasal Rate” value [1, 3] was 3 mL/s, the “Max Tolerable Oral Rate” value [1, 3] was >10* ml/sec and the “Effective Nasal Rate” value [1, 4] was 2 mL/s. For the same molecule, the “Effective Oral Rate” value [1, 4] was 2 mL/s, the “Max Tolerable Nasal Rate” value [1, 4] was 4 mL/s and the “Max Tolerable Oral Rate” value [1, 4] was >10* ml/sec. For the same molecule, the “Effective Nasal Rate” value [1, 5] was 4 to 5 mL/s, the “Effective Oral Rate” value [1, 5] was 5 to 10 mL/s and the “Max Tolerable Nasal Rate” value [1, 5] was 10 mL/s. For the same molecule, the “Max Tolerable Oral Rate” value [1, 5] was >10* ml/sec, the “Effective Nasal Rate” value [1, 6] was under 1 mL/s and the “Effective Oral Rate” value [1, 6] was 5 to 10 mL/s. For the same molecule, the “Max Tolerable Nasal Rate” value [1, 6] was 2 mL/s, the “Max Tolerable Oral Rate” value [1, 6] was >10* ml/sec and the “Effective Nasal Rate” value [1, 7] was 4 to 5 mL/s. The “Effective Oral Rate” value [1, 7] was 5 to 10 mL/s, the “Max Tolerable Nasal Rate” value [1, 7] was 10 mL/s and the “Max Tolerable Oral Rate” value [1, 7] was >10* ml/sec. The “Effective Nasal Rate” value [1, 8] was under 1 mL/s, the “Effective Oral Rate” value [1, 8] was >10* ml/sec and the “Max Tolerable Nasal Rate” value [1, 8] was under 1 mL/s. For the same molecule, the “Max Tolerable Oral Rate” value [1, 8] was >10* ml/sec, the “Effective Nasal Rate” value [1, 9] was 4 to 5 mL/s and the “Effective Oral Rate” value [1, 9] was 5 to 10 mL/s. For the same molecule, the “Max Tolerable Nasal Rate” value [1, 9] was 10 mL/s, the “Max Tolerable Oral Rate” value [1, 9] was >10* ml/sec and the “24-hr. Recur Rate” value [2, 10] was 50%. For the same molecule, the “After Effects” value [2, 10] was 0%, the “Symptom Free, Minutes Post-Treatment” value [2, 11] was 25% and the “Symptom, Relief, Minutes Post-Treatment” value [2, 11] was 25%. The “Symptom Free, Minutes Post-Treatment” value [2, 12] was 63%, the “Symptom, Relief, Minutes Post-Treatment” value [2, 12] was 75% and the “Symptom Free, Minutes Post-Treatment” value [2, 13] was 88%. The “Symptom, Relief, Minutes Post-Treatment” value [2, 13] was 100%, the “Symptom Free, Minutes Post-Treatment” value [2, 14] was 88% and the “Symptom, Relief, Minutes Post-Treatment” value [2, 14] was 100%. For the same molecule, the “After Effects” value ([2]; Allergy (N = 9), mild) was 0%, the “Symptom Free, Minutes Post-Treatment” value [2, 15] was 33% and the “Symptom, Relief, Minutes Post-Treatment” value [2, 15] was 33%. The “Symptom Free, Minutes Post-Treatment” value [2, 16] was 67%, the “Symptom, Relief, Minutes Post-Treatment” value [2, 16] was 78% and the “Symptom Free, Minutes Post-Treatment” value [2, 17] was 89%. For the same molecule, the “Symptom, Relief, Minutes Post-Treatment” value [2, 17] was 100%, the “Symptom Free, Minutes Post-Treatment” value [2, 18] was 89% and the “Symptom, Relief, Minutes Post-Treatment” value [2, 18] was 100%. For the same molecule, the “24-hr. Recur Rate” value ([2]; Allergy (N = 9), mild, N=4 for this determination) was 50%, the “Est. Rate” value ([2]; Allergy-All) was 3 mL/s and the “Est. Total Dose” value ([2]; Allergy-All) was 133 mL. The “Number of Doses” value ([2]; Allergy-All) was 2 #, the “Single Dose Duration” value ([2]; Allergy-All) was 13 s and the “Total Dose” value ([2]; Allergy-All) was 39 s. The “Total Treatment Time” value ([2]; Allergy-All) was 5 min, the “Est. Rate” value ([2]; Allergy-Mild) was 5 mL/s and the “Est. Total Dose” value ([2]; Allergy-Mild) was 200 mL. For the same molecule, the “Number of Doses” value ([2]; Allergy-Mild) was 2 #, the “Single Dose Duration” value ([2]; Allergy-Mild) was 15 s and the “Total Dose” value ([2]; Allergy-Mild) was 40 s. For the same molecule, the “Total Treatment Time” value ([2]; Allergy-Mild) was over 0.7 min, the “Est. Rate” value ([2]; Allergy-Moderate) was 2 mL/s and the “Est. Total Dose” value ([2]; Allergy-Moderate) was 31 mL. For the same molecule, the “Number of Doses” value ([2]; Allergy-Moderate) was 2 #, the “Single Dose Duration” value ([2]; Allergy-Moderate) was 3 s and the “Total Dose” value ([2]; Allergy-Moderate) was 16 s. For the same molecule, the “Total Treatment Time” value ([2]; Allergy-Moderate) was over 0.2 min, the “Est. Rate” value ([2]; Allergy-Severe) was 4 mL/s and the “Est. Total Dose” value ([2]; Allergy-Severe) was 156 mL. The “Number of Doses” value ([2]; Allergy-Severe) was 2 #, the “Single Dose Duration” value ([2]; Allergy-Severe) was 17 s and the “Total Dose” value ([2]; Allergy-Severe) was 46 s. The “Total Treatment Time” value ([2]; Allergy-Severe) was over 3.9 min, the efficacy ([2]; allergic rhinitis, occurring in seconds to minutes) was 88-100% and the “adverse after effects of treatment” value ([2]; allergy subjects) was “No subjects reported any adverse after effects”. For the same molecule, the “onset of symptom relief” value ([2]; allergy, while administering the first dose) was “immediate onset of symptom relief within seconds”, the “oral versus nasal administration” value ([2]; oral administration via pursed lips, allergic inflammation extending into the oral cavity) was “more effective” and the “time of recurrence of allergy symptoms post-treatment” value ([2]; recurrences) was at least 3 h.
